Laboratory results from patent publication US20080176810A1, “Use of 3, 4', 5-Trihydroxy-Stilbene-3-Beta-D-glucoside in Prepartion of Medicines For Treating and/or Preventing Ischemic Heart Disease” (SHENZHEN NEPTUNUS PHARMACEUTICAL CO., LTD., priority 2004, published 2008).

System: anesthetized dogs
Test: Hemodynamics in anesthetized dogs, iv
Assay type: in vivo
Description: Solvent control group, Isosorbide Dinitrate control group (0.4 mg/kg/h) and administration groups of 3,4′,5-trihydroxy-stilbene-3-[…]-D-glucoside at low (2.5 mg/kg), middle (5 mg/kg) or high (10 mg/kg) doses were set up for the test. Isosorbide Dinitrate control group were medicated by continuous intravenous infusion and other groups by intravenous injection.
After anesthetized with pentobarbital sodium, the dog was immobilized on its back. A femoral artery was separated for insertion of a catheter to record blood pressure of artery. A cardiac catheter was guided inversely from right common carotid artery into its left ventricle. Both catheters were connected to pressure transmitters. After pressure signals were amplified with carriers, they were input into an electrophysiolograph Powerlab system 8s, (ML785/8S AD Instruments, Australia). Needle electrodes were punctured into four limbs to monitor standard 2-lead ECG. A computer (chart4.12, ML785/8S, AD Instruments, Australia) were applied for real-time monitoring and storage of data. After operation, there were 30 minutes for stableness and then basic indexes were recorded before administration. Negative control group were given by […] injection of solvent at 2 ml/kg, while positive control group were intravenously infused at 0.4 mg/kg/h. […]
Indexes of observation included heart rate (HR), systolic blood pressure (BPs), diastolic blood pressure, mean blood pressure, left ventricular systolic pressure (LVSP), left ventricular diastolic pressure (LVDP), the maximum change rate of left ventricular systolic pressure rise and fall (±dp/dtmax), left ventricular end diastolic pressure and ECG.
Significance of differences was checked.

[1] = TSG 2.5 mg/kg iv, Time c1-c5: 0,10,30,60,120 min, 10 min after dosing
[2] = TSG 2.5 mg/kg iv, Time c1-c5: 0,10,30,60,120 min, 30 min after dosing
[3] = TSG 2.5 mg/kg iv, Time c1-c5: 0,10,30,60,120 min, 60 min after dosing
[4] = TSG 2.5 mg/kg iv, Time c1-c5: 0,10,30,60,120 min, 120 min after dosing
[5] = TSG 2.5 mg/kg iv, Time c1-c5: 0,10,30,60,120 min, before dosing (0 min)
[6] = TSG 5 mg/kg iv, Time c1-c5: 0,15,30,60,120 min, 0 min, before dosing
[7] = TSG 5 mg/kg iv, Time c1-c5: 0,15,30,60,120 min, 15 min after dosing
[8] = TSG 5 mg/kg iv, Time c1-c5: 0,15,30,60,120 min, 30 min after dosing
[9] = TSG 5 mg/kg iv, Time c1-c5: 0,15,30,60,120 min, 60 min after dosing
[10] = TSG 5 mg/kg iv, Time c1-c5: 0,15,30,60,120 min, 120 min after dosing
[11] = TSG 10 mg/kg iv, Time c1-c5: 0,10,30,60,120 min, 0 min
[12] = TSG 10 mg/kg iv, Time c1-c5: 0,10,30,60,120 min, 10 min after dosing
[13] = TSG 10 mg/kg iv, Time c1-c5: 0,10,30,60,120 min, 30 min after dosing
[14] = TSG 10 mg/kg iv, Time c1-c5: 0,10,30,60,120 min, 60 min after dosing
[15] = TSG 10 mg/kg iv, Time c1-c5: 0,10,30,60,120 min, 120 min after dosing

3,4′,5-trihydroxy-stilbene-3-β-D-glucoside [TSG]
+dp/dt max [1]: 829.1 ± 308.3 Kpa/s | BPd [1]: 18.3 ± 2.3 KPa | BPm [1]: 20.7 ± 2.1 KPa | BPs [1]: 24.5 ± 2.0 KPa | HR [1]: 160.4 ± 18.4 p/min | LVDP [1]: 0.45 ± 2.40 KPa | LVEDP [1]: 1.00 ± 2.33 KPa | LVSP [1]: 25.2 ± 4.2 KPa | −dp/dt max [1]: 777.3 ± 241.8 Kpa/s | +dp/dt max [2]: 869.6 ± 235.9 Kpa/s | BPd [2]: 18.5 ± 2.2 KPa | BPm [2]: 20.8 ± 1.7 KPa | BPs [2]: 24.7 ± 1.3 KPa | HR [2]: 161.7 ± 18.0 p/min | LVDP [2]: 0.28 ± 2.40 KPa | LVEDP [2]: 1.11 ± 2.50 KPa | LVSP [2]: 25.7 ± 3.8 KPa | −dp/dt max [2]: 873.9 ± 236.8 Kpa/s | +dp/dt max [3]: 993.9 ± 206.2 Kpa/s | BPd [3]: 19.1 ± 2.5 KPa | BPm [3]: 21.6 ± 2.0 KPa | BPs [3]: 25.5 ± 1.6 KPa | HR [3]: 171.1 ± 18.8 p/min | LVDP [3]: 0.26 ± 2.35 KPa | LVEDP [3]: 0.78 ± 2.37 KPa | LVSP [3]: 26.5 ± 2.5 KPa | −dp/dt max [3]: 905.9 ± 207.8 Kpa/s | +dp/dt max [4]: 957.9 ± 190.0 Kpa/s | BPd [4]: 18.1 ± 1.8 KPa | BPm [4]: 20.2 ± 2.3 KPa | BPs [4]: 23.7 ± 3.3 KPa | HR [4]: 170.5 ± 16.1 p/min | LVDP [4]: 0.50 ± 2.06 KPa | LVEDP [4]: 1.09 ± 2.16 KPa | LVSP [4]: 26.7 ± 2.3 KPa | −dp/dt max [4]: 852.5 ± 159.6 Kpa/s | +dp/dt max [5]: 853.1 ± 321.1 Kpa/s | BPd [5]: 18.5 ± 1.7 KPa | BPm [5]: 21.1 ± 2.0 KPa | BPs [5]: 25.3 ± 3.0 KPa | HR [5]: 163.7 ± 21.1 p/min | LVDP [5]: 0.39 ± 2.20 KPa | LVEDP [5]: 1.14 ± 2.18 KPa | LVSP [5]: 24.9 ± 4.0 KPa | −dp/dt max [5]: 772.0 ± 201.0 Kpa/s | +dp/dt max [6]: 822.6 ± 353.8 Kpa/s | BPd [6]: 18.9 ± 4.2 KPa | BPm [6]: 21.1 ± 4.7 KPa | BPs [6]: 25.4 ± 6.4 KPa | HR [6]: 177.2 ± 35.5 p/min | LVEDP [6]: 1.05 ± 1.34 KPa | LVSP [6]: 24.1 ± 4.4 KPa | −dp/dt max [6]: 866.2 ± 350.7 Kpa/s | +dp/dt max [7]: 793.8 ± 299.0 Kpa/s | BPd [7]: 18.7 ± 4.4 KPa | BPs [7]: 25.4 ± 5.8 KPa | HR [7]: 171.0 ± 35.6 p/min | LVEDP [7]: 1.08 ± 1.62 KPa | LVSP [7]: 24.3 ± 4.6 KPa | −dp/dt max [7]: 812.2 ± 308.9 Kpa/s | +dp/dt max [8]: 855.5 ± 296.5 Kpa/s | BPd [8]: 19.2 ± 4.0 KPa | BPm [8]: 21.7 ± 4.2 KPa | BPs [8]: 26.1 ± 5.3 KPa | HR [8]: 170.0 ± 35.5 p/min | LVEDP [8]: 1.19 ± 1.76 KPa | LVSP [8]: 24.6 ± 4.6 KPa | −dp/dt max [8]: 912.3 ± 318.8 Kpa/s | +dp/dt max [9]: 936.1 ± 199.9 Kpa/s | BPd [9]: 19.8 ± 3.3 KPa | BPm [9]: 22.1 ± 3.3 KPa | BPs [9]: 26.6 ± 4.1 KPa | HR [9]: 178.0 ± 29.5 p/min | LVEDP [9]: 0.99 ± 1.19 KPa | LVSP [9]: 25.6 ± 3.0 KPa | −dp/dt max [9]: 891.5 ± 261.8 Kpa/s | +dp/dt max [10]: 921.4 ± 327.1 Kpa/s | BPd [10]: 18.8 ± 4.4 KPa | BPm [10]: 21.0 ± 4.4 KPa | BPs [10]: 25.0 ± 5.0 KPa | HR [10]: 170.2 ± 37.1 p/min | LVEDP [10]: 0.98 ± 1.42 KPa | LVSP [10]: 25.1 ± 5.2 KPa | −dp/dt max [10]: 872.0 ± 291.7 Kpa/s | +dp/dt max [11]: 1455.5 ± 637.7 Kpa/s | BPd [11]: 19.6 ± 3.7 KPa | BPm [11]: 22.5 ± 4.8 KPa | BPs [11]: 28.5 ± 7.5 KPa | HR [11]: 212.5 ± 31.3 p/min | LVSP [11]: 30.1 ± 5.9 KPa | −dp/dt max [11]: 1164.1 ± 488.8 Kpa/s | +dp/dt max [12]: 1646.2 ± 807.8 Kpa/s | BPd [12]: 21.0 ± 5.1 KPa | BPm [12]: 24.5 ± 5.9 KPa | BPs [12]: 32.4 ± 8.2 KPa | HR [12]: 209.7 ± 33.4 p/min | LVSP [12]: 32.4 ± 6.3 KPa | −dp/dt max [12]: 1200.6 ± 447.6 Kpa/s | +dp/dt max [13]: 1623.9 ± 729.5 Kpa/s | BPd [13]: 21.4 ± 5.5 KPa | BPm [13]: 25.1 ± 5.9 KPa | BPs [13]: 33.2 ± 8.5 KPa | HR [13]: 210.2 ± 33.8 p/min | LVSP [13]: 32.4 ± 6.8 KPa | −dp/dt max [13]: 1120.4 ± 357.8 Kpa/s | +dp/dt max [14]: 1518.5 ± 708.1 Kpa/s | BPd [14]: 20.6 ± 4.8 KPa | BPm [14]: 24.4 ± 5.1 KPa | BPs [14]: 33.6 ± 5.5 KPa | HR [14]: 207.1 ± 38.1 p/min | LVSP [14]: 31.7 ± 5.5 KPa | −dp/dt max [14]: 1189.6 ± 461.6 Kpa/s | +dp/dt max [15]: 1266.6 ± 334.8 Kpa/s | BPd [15]: 20.2 ± 3.0 KPa | BPm [15]: 22.7 ± 3.0 KPa | BPs [15]: 29.0 ± 4.8 KPa | HR [15]: 205.6 ± 50.2 p/min | LVSP [15]: 29.5 ± 2.7 KPa | −dp/dt max [15]: 1068.5 ± 208.6 Kpa/s
